Data taken from ChEMBL document CHEMBL5316313, “Discovery of Novel 3-Phenylpiperidine Derivatives Targeting the β-Catenin/B-Cell Lymphoma 9 Interaction as a Single Agent and in Combination with the Anti-PD-1 Antibody for the Treatment of Colorectal Cancer” (J Med Chem, 2023).
The source made the active and inactive calls. The calls are words filed in the database; no cut-off is given here.

How the values were obtained:
CT26 = assay: Synergistic antitumor activity in mouse CT26 cells xenografted in BALB/c mouse assessed as increase in GZMB mRNA expression level in tumor at 30 mg/kg, ip QD in presence of anti-PD-1 antibody cotreatment at 10 mg/kg,ip BIW by qRT-PCR analysis; assay type: functional, organism-based
[1] = target: T1, beta-catenin-B-cell lymphoma 9 protein complex (Homo sapiens, UniProt P35222); assay: Inhibition of beta-catenin/BCL9 protein-protein interaction in Wnt-independent human RKO cells assessed as reduction in Axin2 expression level by qRT-PCR assay; assay type: cell-based
T1 sequence (P35222 whole entry): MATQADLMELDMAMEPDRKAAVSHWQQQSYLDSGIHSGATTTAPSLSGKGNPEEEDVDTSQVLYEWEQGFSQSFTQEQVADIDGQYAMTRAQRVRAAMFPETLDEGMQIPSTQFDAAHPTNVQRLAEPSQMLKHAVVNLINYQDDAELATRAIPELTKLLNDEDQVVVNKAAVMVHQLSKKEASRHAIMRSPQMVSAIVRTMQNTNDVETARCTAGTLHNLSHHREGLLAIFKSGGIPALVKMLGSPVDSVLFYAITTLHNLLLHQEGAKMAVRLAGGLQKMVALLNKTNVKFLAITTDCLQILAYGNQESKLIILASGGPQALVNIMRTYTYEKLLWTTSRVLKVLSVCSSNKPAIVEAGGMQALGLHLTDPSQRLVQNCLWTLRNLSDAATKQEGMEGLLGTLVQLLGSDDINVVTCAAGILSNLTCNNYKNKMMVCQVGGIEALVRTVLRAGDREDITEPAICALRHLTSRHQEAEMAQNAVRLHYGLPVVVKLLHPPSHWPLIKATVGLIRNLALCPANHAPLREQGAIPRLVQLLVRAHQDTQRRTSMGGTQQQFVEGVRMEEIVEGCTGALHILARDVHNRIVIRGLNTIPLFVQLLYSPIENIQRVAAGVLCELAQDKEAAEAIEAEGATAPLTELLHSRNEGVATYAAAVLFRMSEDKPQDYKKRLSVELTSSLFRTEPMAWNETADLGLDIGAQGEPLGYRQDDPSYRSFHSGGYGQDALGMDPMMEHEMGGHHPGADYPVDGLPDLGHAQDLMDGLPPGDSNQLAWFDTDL
T1 sequence (O00512 whole entry): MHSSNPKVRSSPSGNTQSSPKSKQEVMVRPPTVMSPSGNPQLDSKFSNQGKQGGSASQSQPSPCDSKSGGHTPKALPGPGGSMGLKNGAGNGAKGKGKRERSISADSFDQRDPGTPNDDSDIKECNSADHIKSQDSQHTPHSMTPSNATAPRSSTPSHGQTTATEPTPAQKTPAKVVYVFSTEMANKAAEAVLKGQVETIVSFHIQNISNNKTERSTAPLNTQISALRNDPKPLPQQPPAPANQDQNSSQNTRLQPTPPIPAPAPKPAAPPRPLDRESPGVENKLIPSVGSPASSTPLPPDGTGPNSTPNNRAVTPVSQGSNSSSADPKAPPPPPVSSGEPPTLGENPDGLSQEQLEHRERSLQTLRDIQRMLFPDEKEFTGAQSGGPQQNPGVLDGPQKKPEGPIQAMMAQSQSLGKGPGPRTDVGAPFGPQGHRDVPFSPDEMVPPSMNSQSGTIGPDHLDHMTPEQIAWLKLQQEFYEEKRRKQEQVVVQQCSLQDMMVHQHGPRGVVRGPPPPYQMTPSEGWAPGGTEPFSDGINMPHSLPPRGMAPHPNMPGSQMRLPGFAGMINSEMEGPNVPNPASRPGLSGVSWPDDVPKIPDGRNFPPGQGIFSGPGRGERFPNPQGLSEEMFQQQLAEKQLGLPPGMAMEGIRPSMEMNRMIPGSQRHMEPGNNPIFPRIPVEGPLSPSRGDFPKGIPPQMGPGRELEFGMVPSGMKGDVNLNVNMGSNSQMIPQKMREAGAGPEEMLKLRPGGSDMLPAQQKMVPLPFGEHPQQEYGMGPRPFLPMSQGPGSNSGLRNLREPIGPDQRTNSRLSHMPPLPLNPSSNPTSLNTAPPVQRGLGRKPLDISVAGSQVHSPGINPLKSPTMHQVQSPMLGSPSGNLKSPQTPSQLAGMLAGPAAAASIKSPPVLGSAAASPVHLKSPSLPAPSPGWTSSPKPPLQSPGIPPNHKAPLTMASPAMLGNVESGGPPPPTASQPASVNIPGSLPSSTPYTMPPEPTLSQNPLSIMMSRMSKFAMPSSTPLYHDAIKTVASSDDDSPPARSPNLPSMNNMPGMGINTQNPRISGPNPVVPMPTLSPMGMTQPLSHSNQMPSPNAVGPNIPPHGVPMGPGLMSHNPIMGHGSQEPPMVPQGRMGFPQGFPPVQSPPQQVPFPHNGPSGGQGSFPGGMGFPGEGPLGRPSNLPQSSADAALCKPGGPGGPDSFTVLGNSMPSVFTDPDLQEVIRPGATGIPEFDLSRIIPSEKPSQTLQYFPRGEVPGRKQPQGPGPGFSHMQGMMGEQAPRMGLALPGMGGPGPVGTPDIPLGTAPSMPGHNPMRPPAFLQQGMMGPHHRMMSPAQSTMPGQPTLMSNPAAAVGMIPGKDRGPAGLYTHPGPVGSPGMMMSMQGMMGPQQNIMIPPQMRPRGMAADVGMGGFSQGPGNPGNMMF

IC50 [1] [µM] | Compound | Activity (CT26)
– | CC(C)c1ccc(-c2cccc(S(=O)(=O)N3CCCC(c4cccc(OC(C)(C)C(=O)NS(=O)(=O)c5ccc(C(F)(F)F)cc5)c4)C3)c2)cc1 (configuration not stated) | Active
26.3 | O=C1[C@H](Cc2ccc(O)cc2)N2C(=O)CCN(C(=O)NCc3ccccc3)[C@H]2CN1Cc1cccc2ccccc12 | –
